# Measured values as given in US4956345A, “2-alkynyladenosines as antihypertensive agents” (Yamasa Shoyu Kabushiki Kaisha, priority 1985, dated 1990).
# Like-named read-outs stand apart in the source and are kept apart here.
# Key:
# blood pressure in NR [1] = experiment: Test 3: effect on the blood pressure in NR, intravenous; format: in vivo, male Wistar rats (normotensive rats; conditions: 100 μg/kg, procedure of Test 2 (femoral vein), 10- to 12-week-old male Wistar rats
# Method: (§1) Thirty-two-week-old male SHRs (divided into groups of three rats each) were anesthetized with urethane (1.1 g/kg, i.p.), and the blood pressure of each of the rats delivered from the common carotid artery was recorded on a polygraph through a pressure transducer (Model MPU-0.5).
# (§2) The pharmaceutical preparation was administered through a cannula inserted into the femoral vein of the rat at a rate of 0.5 ml/kg, and the blood pressure was measured continuously from before administration to 30 minutes after administration.
# (§3) The procedure of Test 2 was followed with 10- to 12-week-old male Wistar rats (divided into groups of three rats each) to measure the hypotensive effects of the respective pharmaceutical preparations (100 μg/kg). Simultaneously, the change in heart rate was measured. The heart rate was measured by an ictometer based on the systolic blood pressure as a trigger.
# heart rate = experiment: Test 3: change in heart rate in NR; format: in vivo, male Wistar rats (normotensive rats; conditions: 100 μg/kg, procedure of Test 2, 10- to 12-week-old male Wistar rats
# Method: as §3
# blood pressure in SHR [2] = experiment: Test 1: effect on the blood pressure in SHR, oral, tail artery sphygmomanometer; format: in vivo, spontaneously hypertensive rats (SHR); conditions: 12- to 15-week-old male SHR, maximum within 2, 4, 6 and 8 hours
# Method: To twelve- to fifteen-week-old male SHRs were orally administered test compounds each suspended in 0.5% CMC/physiological saline at a rate of 2 ml/kg. The blood pressure of the thus treated SHRs was measured by means of a tail artery sphygmomanometer (supplied by Nalco Co., Model PE-300) prior to the oral administration and at 2, 4, 6 and 8 hours thereafter. Reduction in blood pressure was calculated on the basis of the values thus obtained, and the maximum reduction levels attained by the respective compounds are summarized in TABLE 2. Each test compound was evaluated with a group of 4 rats.
# blood pressure in SHR [3] = experiment: Test 2: effect on the blood pressure in SHR, intravenous, anesthetized; format: in vivo, spontaneously hypertensive rats (SHR), male; conditions: for Reduction in blood pressure (-Δmax, mmHg): 100 μg/kg, femoral vein, 32-week-old male SHR, urethane anesthesia, 30 minutes; for selectivity of hypotensive effect, SHR versus NR (in words): TABLES 3 and 4, 100 μg/kg
# Method: as §1, §2
# male Jcl:ICR mice = experiment: Test 5: Acute toxicity; format: in vivo
# Method: (§4) The acute toxicity of Compound 8(n=13) was tested with seven-week-old male Jcl:ICR mice.
# (§5) The physically allowable doses of Compound 8 for intraperitoneal administration and oral administration were 800 mg/kg and 1,300 mg/kg, respectively.
# blood pressure in SHR [4] = experiment: Test 4: effect on the blood pressure in SHR, oral; format: in vivo, spontaneously hypertensive rats (SHR), male; conditions: 10 mg/kg
# blood pressure in NR [5] = experiment: Test 4: effect on the blood pressure in NR, oral; format: in vivo, male Wistar rats (normotensive rats; conditions: Wistar rat, 18- to 20-week-old male, 10 mg/kg
# Method: Eighteen- to twenty-week-old male SHR (divided into groups of four rats each) and eighteen- to twenty-week-old male Wistar rats (divided into groups of four rats each) were orally administered with Compound 8(n=13) in the same manner as in Test 2 at a dose of 10 mg/kg, and the blood pressure of each of the rats was measured.
# Test 5: Acute toxicity = format: in vivo; conditions: mouse, in vivo
# Method: as §4, §5
# heart = conditions: side effect, background statement; cited from earlier work
# adenosine deaminase = conditions: background statement; cited from earlier work
Structure (SMILES),"Reduction in blood pressure (-Δmax, mmHg) (blood pressure in NR [1]) [mmHg]",Change in heart rate (ΔHR) (heart rate),"Reduction in blood pressure (-Δmax, mmHg) (blood pressure in SHR [2]; 3 mg/kg) [mmHg]",also measured
CCCC#Cc1nc(N)c2ncn([C@@H]3O[C@H](CO)[C@@H](O)[C@H]3O)c2n1 [Compound 1],21,-48,,
CCCCC#Cc1nc(N)c2ncn([C@@H]3O[C@H](CO)[C@@H](O)[C@H]3O)c2n1 [Compound 2],42,-36,,"Reduction in blood pressure (-Δmax, mmHg) (blood pressure in SHR [2]; 1 mg/kg): > 136 mmHg"
CCCCCC#Cc1nc(N)c2ncn([C@@H]3O[C@H](CO)[C@@H](O)[C@H]3O)c2n1 [Compound 3],48,-180,,
CCCCCCC#Cc1nc(N)c2ncn([C@@H]3O[C@H](CO)[C@@H](O)[C@H]3O)c2n1 [Compound 4],55,-288,,"Reduction in blood pressure (-Δmax, mmHg) (blood pressure in SHR [2]; 1 mg/kg): 69 mmHg"
CCCCCCCCC#Cc1nc(N)c2ncn([C@@H]3O[C@H](CO)[C@@H](O)[C@H]3O)c2n1 [Compound 5],24,-18,106,
CCCCCCCCCCC#Cc1nc(N)c2ncn([C@@H]3O[C@H](CO)[C@@H](O)[C@H]3O)c2n1 [Compound 6],26,-12,65,"Reduction in blood pressure (-Δmax, mmHg) (blood pressure in SHR [3]): 20 mmHg; selectivity of hypotensive effect, SHR versus NR (in words) (blood pressure in SHR [3]): substantially equal hypotensive effect on SHR and NR; mortality, intraperitoneal administration of 500 mg/kg (male Jcl:ICR mice; mouse, in vivo): all the five mice forming one group died"
CCCCCCCCCCCCC#Cc1nc(N)c2ncn([C@@H]3O[C@H](CO)[C@@H](O)[C@H]3O)c2n1 [Compound 7],10,0,65,"Reduction in blood pressure (-Δmax, mmHg) (blood pressure in SHR [3]): 21 mmHg; selectivity of hypotensive effect, SHR versus NR (in words) (blood pressure in SHR [3]): acted selectively on SHR"
CCCCCCCCCCCCCCC#Cc1nc(N)c2ncn([C@@H]3O[C@H](CO)[C@@H](O)[C@H]3O)c2n1 [Compound 8],5,0,48,"Reduction in blood pressure (-Δmax, mmHg) (blood pressure in SHR [3]): 16 mmHg; selectivity of hypotensive effect, SHR versus NR (in words) (blood pressure in SHR [3]): acted selectively on SHR; selectivity of hypotensive effect on SHR, oral (in words) (blood pressure in SHR [4]; SHR versus Wistar rat, TABLE 5): tendency of Compound 8(n=13) to act selectively on SHR; Reduction in blood pressure (-Δ, mmHg), 1 hr. after administration (blood pressure in SHR [4]; SHR, 18- to 20-week-old male, 1 hr): 41 mmHg; Reduction in blood pressure (-Δ, mmHg), 2 hrs. after administration (blood pressure in SHR [4]; SHR, 18- to 20-week-old male, 2 hrs): 42 mmHg; Reduction in blood pressure (-Δ, mmHg), 1 hr. after administration (blood pressure in NR [5]; 1 hr): 16 mmHg; Reduction in blood pressure (-Δ, mmHg), 2 hrs. after administration (blood pressure in NR [5]; 2 hrs): 24 mmHg; LD50 (Test 5: Acute toxicity; ip, read-out: LD50, intraperitoneal administration): > 800 mg/kg; selectivity ratio (Test 5: Acute toxicity; po): ≥ 400; LD50 (Test 5: Acute toxicity; po, read-out: LD50, oral administration): > 1300 mg/kg; toxicity compared with Compound 6 (in words) (male Jcl:ICR mice; compared with long-chain compound such as Compound 6): less toxic; mortality at maximum doses (male Jcl:ICR mice; mouse, in vivo): None of the mice administered with the test compound at these maximum doses, divided into groups of five mice each, died"
CCCCCCCCCCCCCCCC#Cc1nc(N)c2ncn([C@@H]3O[C@H](CO)[C@@H](O)[C@H]3O)c2n1 [Compound 9],3,-6,35,
CCCCCCCCCCCCCCCCC#Cc1nc(N)c2ncn([C@@H]3O[C@H](CO)[C@@H](O)[C@H]3O)c2n1 [Compound 10],10,-5,46,
Nc1ncnc2c1ncn2[C@@H]1O[C@H](CO)[C@@H](O)[C@H]1O [adenosine],,,,suppressive effect on the heart (heart): strong suppressive effect on the heart; deamination by adenosine deaminase (adenosine deaminase): rapidly deaminated by adenosine deaminase
